Data on two molecules can be found in patent US20200221740A1, “TERMINALIA FERDINANDIANA LEAF EXTRACT AND PRODUCTS CONTAINING EXTRACT OF TERMINALIA FERDINANDIANA LEAF” (RISING PHOENIX INDUSTRIES PTY LTD, priority 2017, published 2020).

Data set [1] deals with Shewanella baltica strain OS155. Briefly: disc diffusion growth inhibition screening. It counts as cell-based. To be noted: S. baltica. From the text:
(§1) Antibacterial screening: Environmental Shewanella strains: Shewanella putrefaciens strain 200, Shewanella baltica strain OS155, Shewanella frigidimarina strain NCIMB 400 and Shewanella loihica strain PV-4 were used. Antibacterial screening was achieved using a modified peptone/yeast extract (PYE) agar containing: 1 g/L peptone, 1.5 g/L yeast extract, 7.5 g/L NaCl, 1 g/L ammonium persulfate, 2.4 g/L HEPES buffer (pH 7.5) and 16 g/L bacteriological agar. The S. putrefaciens and S. loihica cultures were incubated at 30° C. for 24 h. The S. baltica and S. frigidimarina cultures were incubated at 15° C. for 72 h. All stock cultures were subcultured and maintained in PYE media at 4° C. Evaluation of antibacterial activity: Antibacterial activity screening of the […] fruit and leaf extracts was assessed using a modified disc diffusion assay. […] Discs were infused with 10 μL of the […] fruit and leaf extracts, allowed to dry and placed onto the inoculated plates. The plates were left to stand at 4° C. for 2 h before incubation. Plates inoculated with S. putrefaciens or S. loihica cultures were incubated at 30° C. for 24 h. S. baltica or S. frigidimarina cultures were incubated at 15° C. for 72 h. The diameters of the inhibition zones were measured to the closest whole millimetre. Each assay was completed in at least triplicate. Mean values (±SEM) are reported in this study. Ampicillin discs (10 μg) were obtained and used as positive controls to compare antibacterial activity. Filter discs infused with 10 μL of distilled water were used as a negative control.
A general note: A growth-free zone around the sample is the usual read-out of agar diffusion tests.

Data set [2] deals with Shewanella loihica strain PV-4. Description: disc diffusion growth inhibition screening. It counts as cell-based. The settings on record: PV4, S. loihica, 10 μL extract per disc, ampicillin 10 μg, 30° C. 24 h.
Text: as §1

Data set [3] deals with Shewanella putrefaciens strain 200. Briefly: disc diffusion growth inhibition screening. Format: cell-based. To be noted: S. putrefaciens, 10 μL extract per disc, ampicillin 10 μg, 30° C. 24 h.
Text: as §1

Data set [4] relates to Shewanella frigidimarina strain NCIMB 400. Description: disc diffusion growth inhibition screening. It counts as cell-based. The settings on record: S. frigidimarina. An excerpt:
Antibacterial screening: Environmental Shewanella strains: Shewanella putrefaciens strain 200, Shewanella baltica strain OS155, Shewanella frigidimarina strain NCIMB 400 and Shewanella loihica strain PV-4 were used. Antibacterial screening was achieved using a modified peptone/yeast extract (PYE) agar containing: 1 g/L peptone, 1.5 g/L yeast extract, 7.5 g/L NaCl, 1 g/L ammonium persulfate, 2.4 g/L HEPES buffer (pH 7.5) and 16 g/L bacteriological agar.
The S. putrefaciens and S. loihica cultures were incubated at 30° C. for 24 h. The S. baltica and S. frigidimarina cultures were incubated at 15° C. for 72 h. All stock cultures were subcultured and maintained in PYE media at 4° C.
Evaluation of antibacterial activity: Antibacterial activity screening of the T. ferdinandiana fruit and leaf extracts was assessed using a modified disc diffusion assay. Briefly, 100 μL of each individual Shewanella spp. was grown separately in 20 mL of fresh nutrient broth until an approximate count of 10^8 cells/mL was achieved. A volume of 100 μL of each bacterial suspension was spread onto nutrient agar plates and the extracts were tested for antibacterial activity using 5 mm sterilised filter paper discs. […]
Plates inoculated with S. putrefaciens or S. loihica cultures were incubated at 30° C. for 24 h. […] The diameters of the inhibition zones were measured to the closest whole millimetre. […]

Data set [5] has as its system Artemia franciscana nauplii. Briefly: Artemia franciscana nauplii lethality assay. To be noted: potassium dichromate 1000 μg/mL.
Procedure: Artemia franciscana nauplii toxicity screening: Toxicity was assessed using a modified Artemia franciscana nauplii lethality assay. Briefly, 400 μL of seawater containing ˜53 (mean 52.7, n=125, SD 11.8) A. franciscana nauplii were added to wells of a 48 well plate and immediately used in the bioassay. A volume of 400 μL of the reference toxin or the diluted plant extracts were transferred to the wells and incubated at 25±1° C. under artificial light (1000 Lux). For each plate, a 400 μL seawater negative control was run in triplicate. The wells were assessed at regular intervals and the number of dead counted. The nauplii were deemed dead if no movement of the appendages was observed within 10 seconds. After 24 h, all nauplii were sacrificed and counted to determine the total % mortality per well.
To further quantify the effects of toxin concentration on the initiation of mortality, the extracts were serially diluted in artificial seawater to test across a range of concentrations in the Artemia nauplii bioassay.

For the molecule `CC1(C)S[C@@H]2[C@H](NC(=O)[C@H](N)c3ccccc3)C(=O)N2[C@H]1C(=O)O` [ampicillin], the “growth inhibitory activity (in words)” value is “unaffected” in data set [1] and “resistant” in data set [4]. Moreover, the zone of inhibition at 10 µg/disc in data set [2] is 19.6 ± 1.3 mm; in data set [3] it was 8.3 ± 0.6 mm.
On to `[K+].[K+].[O]=[Cr](=[O])([O-])[O][Cr](=[O])(=[O])[O-]` [potassium dichromate], for which the “onset of nauplii death” value in data set [5] was no more than 3 h. In data set [5] (within 5 hours), this molecule had a mortality of 100%.

As a reminder, the zone of inhibition is the extent of the growth-free halo in a diffusion test. What is called mortality is the share of the test organisms that died. Lower therefore signals more survivors.
